Laboratory results as given in patent US10967069B2, “Bio-orthogonal drug activation” (TAGWORKS PHARMACEUTICALS B.V., priority 2011, dated 2021).
Where two headings read alike, the source gives them in different places. Marks after values point to notes of the source that are not given here.

Legend:
[1] = Reactivity of tetrazines towards trans-cyclooct-4-ene-1-ol (axial isomer), competition experiment; conditions: reference tetrazine 5; acetonitrile/water
Protocol: A competition experiment was performed to determine the reactivity ratio of a specific tetrazine and 3-(5-acetamido-2-pyridyl)-6-(2-pyridyl)-1,2,4,5-tetrazine (5) (that was chosen as the reference tetrazine), in the inverse-electron demand Diels-Alder reaction with trans-cyclooct-4-ene-1-ol (“minor” isomer with OH in axial position, see: Whitham et al. J. Chem. Soc. (C), 1971, 883-896)).
To acetonitrile (0.100 mL) was added 5 μL of a solution of the specific tetrazine in DMSO (25 mM) and 5 μL of a solution of the reference tetrazine in DMSO (25 mM). This mixture was diluted with water (0.9 mL), and the absolute amounts of both tetrazines was determined by HPLC-MS/PDA analysis. Subsequently, a solution of trans-cyclooct-4-ene-1-ol (axial isomer) in DMSO (25 μL 2.5 mM) was slowly added, and the mixture was stirred for 5 min. Again, the absolute amounts of both tetrazines was determined by HPLC-MS/PDA analysis, and conversions for both tetrazines was calculated. From these conversions, the reactivity ratio (R=k2,TCO/k2,Ref) of both tetrazines was calculated using the mathematical procedure from Ingold and Shaw (J. Chem. Soc., 1927, 2918-2926).

[2] = test system: A431 squamous carcinoma cells; test: Cell proliferation assay (MTT)
Protocol: The cells were plated in 96-well plates (Nunc) at a 2500 cells/well density 24 hr prior to the experiment. Doxorubicin (Dox) and the prodrug minor-38 (1 mM in DMSO) and the tetrazine 7 (10 mM in PBS) were serially diluted in pre-warmed culture medium immediately before the experiment and added to the wells (200 μl final volume per well). The prodrug was either added alone or in combination with 10 μM or 1.5 mol eq. tetrazine 7 (with respect to the prodrug). After 72 hr incubation at 37° C., cell proliferation was assessed by an MTT assay. Briefly, methylthiazolyldiphenyltetrazolium bromide (MTT) was dissolved in PBS at 5 mg/ml, filtered through 0.22 μm and 25 μl was added to each well. After 120 min incubation at 37° C., the medium was gently aspirated. The formed formazan crystals were dissolved in 100 μl DMSO and the absorbance was measured with a plate reader (BMG Labtech) at 560 nm.

[3] = Reactivity of tetrazines towards trans-cyclooct-4-ene-1-ol (axial isomer), competition experiment; conditions: values marked *: 50:50 mixture of PBS and acetonitrile; reference tetrazine 5
[4] = Hydrolytic stability tests of tetrazines (UV, decrease of absorption at 525 nm); type: physicochemical; conditions: PBS buffer, 20° C.
Source text: This solution was filtered and, the decrease of the absorption band at 525 nm was monitored using UV spectroscopy.

[5] = Protocol: (§1) 3-(2-Pyridyl)-6-methyl-1,2,4,5-tetrazine (7, 4.33×10^−6 g; 2.50×10^−8 mol) was dissolved in PBS buffer (1 mL) (c=25 μM). Next, minor-(E)-cyclooct-2-en-1-yl doxorubicin carbamate (38, the isomer with the carbamate in the axial position; 1.74×10^−5 g; 2.50×10^−8 mol) was added. The solution was stirred at 20° C. for 4 hr.
as §1, with “Next, major-(E)-cyclooct-2-en-1-yl” for “Next, minor-(E)-cyclooct-2-en-1-yl”, “the equatorial” for “the axial”, “for 16” for “for 4”
3,6-Bis(2-aminophenyl)-1,2,4,5-tetrazine (9, 2.64×10^−6 g; 1.00×10^−8 mol) was dissolved in acetonitrile (0.1 mL). This mixture was diluted with PBS buffer (0.9 mL). Next, minor-(E)-cyclooct-2-en-1-yl doxorubicin carbamate (38; 6.96×10^−6 g; 1.00×10^−8 mol) was added.

[6] = Reactivity of trans-cyclooctene derivatives, competition experiment; conditions: reference trans-cyclooct-4-ene-1-ol (axial isomer)
Protocol: A competition experiment was performed to determine the reactivity ratio of a specific trans-cyclooctene derivative and trans-cyclooct-4-ene-1-ol (axial isomer) (that was chosen as the reference trans-cyclooctene), in the inverse-electron demand Diels-Alder reaction with bis(2-pyridyl)-1,2,4,5-tetrazine (2).
This mixture was diluted with water (0.45 mL). Subsequently, a solution of bis(2-pyridyl)-1,2,4,5-tetrazine (2, 6.25×10^−8 mol) in a mixture of acetonitrile (0.05 mL) and water (0.45 mL) was slowly added while stirring vigorously. After addition, the mixture was stirred for an additional 5 min. The conversion of both trans-cyclooctene derivatives was determined by HPLC-MS/PDA analysis, and from these conversions, the reactivity ratio (R=k2,TCO/k2,Ref) of the specific trans-cyclooctene derivative was calculated using the mathematical procedure from Ingold and Shaw (J. Chem. Soc., 1927, 2918-2926).

[7] = Second-order rate constant of trans-cyclooctene derivatives in inverse-electron demand Diels-Alder reaction (UV-visible spectroscopy); conditions: UV-visible spectroscopy in acetonitrile at 20° C.
Protocol: The kinetics of the inverse-electron demand Diels-Alder reaction of a trans-cyclooctene derivative with 3-(5-acetamido-2-pyridyl)-6-(2-pyridyl)-1,2,4,5-tetrazine (5), performed in acetonitrile at 20° C., was determined using UV-visible spectroscopy. A cuvette was filled with acetonitrile (3 mL) and equilibrated at 20° C. 3-(5-Acetamido-2-pyridyl)-6-(2-pyridyl)-1,2,4,5-tetrazine (5, 2.50×10^−7 mol) was added, followed by the trans-cyclooctene derivative (2.50×10^−7 mol). The decay of the absorption at λ=540 nm was monitored, and from this curve the second-order rate constant, k2, was determined assuming second order rate kinetics.

[8] = Activation of model prodrugs: reaction with 1,2,4,5-tetrazines and elimination of the model drug (HPLC-MS); conditions: for release of 3,5-dimethylaniline: 20 hr
[9] = Stability of trans-cyclooctene derivatives in PBS (HPLC-MS); type: physicochemical; conditions: PBS buffer, 20° C., in the dark, estimation
Protocol: 10 μL of a solution of the specific trans-cyclooctene derivative in dioxane (25 mM) was diluted with PBS buffer (3 mL), and this solution was stored at 20° C. in the dark. The fate of the TCO compound was monitored by HPLC-MS analysis, and an estimation of the half-life time was made.

[10] = with tetrazine 7, c=25 μM, PBS, 20° C., 16 hr

Compound: c1c[nH]c(-c2nnc(-c3ncc[nH]3)nn2)n1
- Reactivity ratio (R = k2,TZ/k2,Ref) [1]: 1.2

Compound: Cc1nnc(-c2ccccn2)nn1 [Tetrazine 7, 3-(2-pyridyl)-6-methyl-1,2,4,5-tetrazine]
- IC50 ([2]; Homo sapiens, A-431, 72 h): > 100000 nM

Compound: Nc1ccc(-c2nnc(-c3ccccc3)nn2)cc1
- Reactivity ratio (R = k2,TZ/k2,Ref) [3]: <0.01*

Compound: Nc1ccc(-c2nnc(-c3ccccn3)nn2)nc1
- Reactivity ratio (R = k2,TZ/k2,Ref) [1]: 0.4

Compound: CCCCNC(=O)c1ccc(-c2nnc(-c3ncccn3)nn2)nc1
- half-life at 83 µM [4]: 25.2 min
- Reactivity ratio (R = k2,TZ/k2,Ref) [1]: 2

Compound: c1c[nH]c(-c2nnc(-c3ccc[nH]3)nn2)c1
- Reactivity ratio (R = k2,TZ/k2,Ref) [3]: <0.01*

Compound: NCc1ccc(-c2nncnn2)cc1
- Reactivity ratio (R = k2,TZ/k2,Ref) [1]: 0.77

Compound: CC(=O)Nc1ccc(-c2nnc(-c3ccccn3)nn2)nc1
- Reactivity ratio (R = k2,TZ/k2,Ref) [1]: 1

Compound: FC(F)(F)c1ccc(-c2nnc(-c3ccc(C(F)(F)F)cn3)nn2)nc1
- Reactivity ratio (R = k2,TZ/k2,Ref) [3]: 5.3*

Compound: CCCC(=O)Nc1ccc(-c2nnc(C)nn2)nc1
- Reactivity ratio (R = k2,TZ/k2,Ref) [1]: 0.18

Compound: c1cc(-c2nnc(-c3ccsc3)nn2)cs1
- Reactivity ratio (R = k2,TZ/k2,Ref) [3]: <0.01*

Compound: COc1cccc2c1C(=O)c1c(O)c3c(c(O)c1C2=O)C[C@@](O)(C(=O)CO)C[C@@H]3O[C@H]1C[C@H](NC(=O)OC2/C=C/CCCCC2)[C@H](O)[C@H](C)O1 (stereo partly drawn) [major-38, major-(E)-cyclooct-2-en-1-yl doxorubicin carbamate]
- conversion of the DA-reaction [5, 10]: 40%
- release of doxorubicin (yield) [5, 10]: 20%

Compound: OC1CC/C=C/CCC1 (stereo not drawn)
- reactivity ratio (R = k2,TC0/k2,Ref) [6]: 1
- rate contant k2 [7]: 577 M⁻¹ s⁻¹

Compound: O=C1CCCC(=O)N1c1ccc(-c2nnc(-c3ccccn3)nn2)nc1
- Reactivity ratio (R = k2,TZ/k2,Ref) [1]: 1.6

Compound: COc1cccc2c1C(=O)c1c(O)c3c(c(O)c1C2=O)C[C@@](O)(C(=O)CO)C[C@@H]3O[C@H]1C[C@H](NC(=O)OC2/C=C/CCCCC2)[C@H](O)[C@H](C)O1 (stereo partly drawn) [minor-38, minor-(E)-cyclooct-2-en-1-yl doxorubicin carbamate]
- IC50 ([2]; A431, 72 hr, + tetrazine 7 (10 μM), constant amount): 278 ± 22 nM
- IC50 ([2]; A431, 72 hr, + tetrazine 7 (1.5 eq.), serial dilutions): 137 ± 12 nM
- IC50 ([2]; A431 cell line, 72 hr, MTT, compound alone): 3020 ± 486 nM
- release of doxorubicin (yield) ([5]; with tetrazine 7, c=25 μM, PBS, 20° C., 4 hr): 69%
- release of doxorubicin at lower concentrations ([5]; with tetrazine 7, concentrations of 2.5 and 1.0 μM): Comparable results
- release of doxorubicin (yield) ([5]; with tetrazine 9, acetonitrile/PBS, 20° C., 18 hr): 90%

Compound: CCCC(=O)Nc1ccc(-c2nnc(-c3ccc(F)cn3)nn2)nc1
- Reactivity ratio (R = k2,TZ/k2,Ref) [1]: 0.95

Compound: Nc1ccc(-c2nnc(-c3ccc(N)cc3)nn2)cc1
- Reactivity ratio (R = k2,TZ/k2,Ref) [3]: <0.01*

Compound: Fc1ccc(-c2nnc(-c3ccc(F)cn3)nn2)nc1
- Reactivity ratio (R = k2,TZ/k2,Ref) [1]: 1.07

Compound: c1ccc(-c2nnc(-c3ccccn3)nn2)nc1
- Reactivity ratio (R = k2,TZ/k2,Ref) [1]: 1.17

Compound: c1csc(-c2nnc(-c3cccs3)nn2)c1
- Reactivity ratio (R = k2,TZ/k2,Ref) [3]: <0.01*

Compound: O=C(NCc1ccccc1)OC1/C=C/CCCCC1 (stereo not drawn) [drawing 103]
- rate contant k2 [7]: 0.26 M⁻¹ s⁻¹

Compound: O=C(NCc1ccccc1)OC1/C=C/CCCCC1 (stereo not drawn) [drawing 104]
- reactivity ratio (R = k2,TC0/k2,Ref) [6]: 0.067
- rate contant k2 [7]: 40 M⁻¹ s⁻¹

Compound: c1cncc(-c2nnc(-c3cccnc3)nn2)c1
- Reactivity ratio (R = k2,TZ/k2,Ref) [1]: 0.19

Compound: COc1cccc2c1C(=O)c1c(O)c3c(c(O)c1C2=O)C[C@@](O)(C(=O)CO)C[C@@H]3O[C@H]1C[C@H](N)[C@H](O)[C@H](C)O1 [Dox, Doxorubicin, reference compound]
- IC50 ([2]; Homo sapiens, A-431, 72 h): 20 ± 2 nM

Compound: Oc1ccc(-c2nnc(-c3ccc(O)cc3)nn2)cc1
- Reactivity ratio (R = k2,TZ/k2,Ref) [3]: <0.01*

Compound: c1cc(-c2nnc(-c3ccncc3)nn2)ccn1
- Reactivity ratio (R = k2,TZ/k2,Ref) [1]: 0.83

Compound: Cc1cc(C)cc(NC(=O)OC2/C=C/CCCCC2)c1 (stereo not drawn) [minor-33, (E)-cyclooct-2-en-1-yl (3,5-dimethylphenyl)carbamate]
- release of 3,5-dimethylaniline ([8]; with 3,6-Bis(2-aminophenyl)-1,2,4,5-tetrazine (9), acetonitrile/PBS, 20° C.): release of 3,5-dimethylaniline
- release of 3,5-dimethylaniline ([8]; with 3,6-Bis(4-hydroxyphenyl)-1,2,4,5-tetrazine (11), acetonitrile/PBS, 20° C.): release of 3,5-dimethylaniline
- release of 3,5-dimethylaniline ([8]; with 3,6-Diphenyl-1,2,4,5-tetrazine, acetonitrile/PBS, 20° C.): release of 3,5-dimethylaniline
- release of 3,5-dimethylaniline ([8]; with 3-(2-Pyridyl)-6-methyl-1,2,4,5-tetrazine (7), PBS, 20° C.): release of 3,5-dimethylaniline

Compound: Cc1cc(C)cc(NC(=O)OC2/C=C/CCCCC2)c1 (stereo not drawn) [drawing 105]
- rate contant k2 [7]: 25.7 M⁻¹ s⁻¹

Compound: Nc1cccc(-c2nnc(-c3ccccc3)nn2)c1
- Reactivity ratio (R = k2,TZ/k2,Ref) [3]: <0.01*

Compound: O=C(NCc1ccccc1)OC1/C=C/CCCCC1 (stereo not drawn) [minor-32, (E)-cyclooct-2-en-1-yl benzylcarbamate]
- release of benzylamine ([8]; with 3,6-Bis(2-aminophenyl)-1,2,4,5-tetrazine (9), DMSO-d6/D2O, 20° C., 24 hr): release of benzylamine
- release of benzylamine ([8]; with 3,6-Bis(2-pyridinyl)-1,2,4,5-tetrazine (2), acetonitrile/water, 20° C., 24 hr): release of benzylamine
- release of benzylamine ([8]; with 3,6-Bis(4-hydroxyphenyl)-1,2,4,5-tetrazine (11), acetonitrile/water, 20° C., 5 hr): release of benzylamine
- release of benzylamine ([8]; with 3,6-Diphenyl-1,2,4,5-tetrazine, general procedure): release of benzylamine
- release of benzylamine ([8]; with 6-H-3-(4-Aminomethylphenyl)-1,2,4,5-tetrazine, general procedure): release of benzylamine
- release of benzylamine ([8]; with 6-Methyl-3-(4-butanamido-2-pyridinyl)-1,2,4,5-tetrazine, general procedure): release of benzylamine
- release of benzylamine ([8]; with 6-Phenyl-3-(3-aminophenyl)-1,2,4,5-tetrazine, general procedure): release of benzylamine
- release of benzylamine ([8]; with 6-Phenyl-3-(4-aminophenyl)-1,2,4,5-tetrazine, general procedure): release of benzylamine

Compound: c1ccc(-c2nnc(-c3ccccc3)nn2)cc1
- Reactivity ratio (R = k2,TZ/k2,Ref) [3]: <0.01*

Compound: Nc1ccccc1-c1nnc(-c2ccccc2N)nn1
- Reactivity ratio (R = k2,TZ/k2,Ref) [3]: <0.01*

Compound: c1cnc(-c2nnc(-c3cnccn3)nn2)cn1
- Reactivity ratio (R = k2,TZ/k2,Ref) [1]: 1.5

Compound: CCCC(=O)Nc1ccc(-c2nncnn2)nc1
- Reactivity ratio (R = k2,TZ/k2,Ref) [1]: 2.8

Compound: CCCC(=O)Nc1ccc(-c2nnc(-c3ccc(C(F)(F)F)cn3)nn2)nc1
- Reactivity ratio (R = k2,TZ/k2,Ref) [3]: 1.84*

Compound: CCCC(=O)Nc1ccc(-c2nnc(-c3ncccn3)nn2)nc1
- Reactivity ratio (R = k2,TZ/k2,Ref) [1]: 2.7

Compound: Cc1nnc(-c2ccccn2)nn1 [drawing 93]
- Reactivity ratio (R = k2,TZ/k2,Ref) [1]: 0.25

Compound: c1ccc(-c2nncnn2)nc1
- Reactivity ratio (R = k2,TZ/k2,Ref) [1]: 3.06

Compound: COc1cccc2c1C(=O)c1c(O)c3c(c(O)c1C2=O)C[C@@](O)(C(=O)CO)CC3OC1CC(NC(=O)OC2/C=C/CCCCC2)[C@H](O)C(C)O1 (stereo partly drawn)
- half-life at 83 µM [9]: > 20 days

Compound: Cc1cc(C)cc(NC(=O)OC2/C=C/CCCCC2)c1 (stereo not drawn) [drawing 106]
- rate contant k2 [7]: 0.15 M⁻¹ s⁻¹

Compound: CCCNC(=O)c1ccc(-c2nnc(-c3ccccn3)nn2)nc1
- Reactivity ratio (R = k2,TZ/k2,Ref) [1]: 1.76
